Results from US9725449B2, “Tricyclic compounds as anticancer agents” (BRISTOL-MYERS SQUIBB COMPANY, priority 2015, dated 2017).

What follows are molecules tested against BRD4 (Homo sapiens, UniProt O60885) (assay: Time resolved fluorescence resonance energy transfer (TR-FRET) binding assay, bromodomain BRD4). Details: one of the FRET assays described; read-out: FRET BRD4 IC50.

`Cc1nnn(C)c1-c1cnc2c3c(=O)[nH]c(Cl)cc3n(C(c3ncccc3F)C3CCOCC3)c2c1` (centres unmarked) [Example 307, 11-Chloro-8-[(3-fluoropyridin-2-yl)(oxan-4-yl)methyl]-5-[4-(^2H3)methyl-1-methyl-1H-1,2,3-triazol-5-yl]-3,8,12-triazatricyclo[7.4.0.0^2,^7]trideca-1(9),2(7),3,5,10-pentaen-13-one] and `Cc1nnn(C)c1-c1cnc2c3cnc(Cl)cc3n(C(c3ncccc3F)C3CCOCC3)c2c1` (centres unmarked) [Example 316] cannot be ordered by IC50: < 10 nM for the first, < 10 nM for the second.

`[2H]C([2H])([2H])c1nnn(C)c1-c1cnc2c3c(OC)nc(C(C)=O)cc3n([C@H](c3ncccc3F)C3CCOCC3)c2c1` [Example 308, 1-{8-[(S)-(3-Fluoropyridin-2-yl)(oxan-4-yl)methyl]-13-methoxy-5-[4-(^2H3)methyl-1-methyl-1H-1,2,3-triazol-5-yl]-3,8,12-triazatricyclo[7.4.0.0^2,^7]trideca-1(9),2(7),3,5,10,12-hexaen-11-yl}ethan-1-one] and `[2H]C([2H])([2H])c1nnn(C)c1-c1cnc2c3c(OC)nc(C(C)=O)cc3n([C@@H](c3ncccc3F)C3CCOCC3)c2c1` [Example 310, 1-{8-[(R)-(3-Fluoropyridin-2-yl)(oxan-4-yl)methyl]-13-methoxy-5-[4-(^2H3)methyl-1-methyl-1H-1,2,3-triazol-5-yl]-3,8,12-triazatricyclo[7.4.0.0^2,^7]trideca-1(9),2(7),3,5,10,12-hexaen-11-yl}ethan-1-one] cannot be ordered by IC50: < 10 nM for the first, < 10 nM for the second.

`[2H]C([2H])([2H])c1nnn(C)c1-c1cnc2c3c(OC)nc(C(C)(C)O)cc3n([C@H](c3ncccc3F)C3CCOCC3)c2c1` [Example 309, 2-{8-[(S)-(3-Fluoropyridin-2-yl)(oxan-4-yl)methyl]-13-methoxy-5-[4-(^2H3)methyl-1-methyl-1H-1,2,3-triazol-5-yl]-3,8,12-triazatricyclo[7.4.0.0^2,^7]trideca-1(9),2(7),3,5,10,12-hexaen-11-yl}propan-2-ol] and `COc1nc(C(C)(C)O)cc2c1c1ncc(-c3c(C)nnn3C)cc1n2[C@@H](c1ncccc1F)C1CCOCC1` [Example 311, 2-{8-[(R)-(3-Fluoropyridin-2-yl)(oxan-4-yl)methyl]-13-methoxy-5-[4-(^2H3)methyl-1-methyl-1H-1,2,3-triazol-5-yl]-3,8,12-triazatricyclo[7.4.0.0^2,^7]trideca-1(9),2(7),3,5,10,12-hexaen-11-yl}propan-2-ol] cannot be ordered by IC50: < 10 nM for the first, < 10 nM for the second.

`Cc1nnn(C)c1-c1cnc2c3c(O)nc(C(C)(C)O)cc3n([C@@H](c3ncccc3F)C3CCOCC3)c2c1` [Example 312, 8-[(R)-(3-Fluoropyridin-2-yl)(oxan-4-yl)methyl]-11-(2-hydroxypropan-2-yl)-5-[4-(^2H3)methyl-1-methyl-1H-1,2,3-triazol-5-yl]-3,8,12-triazatricyclo[7.4.0.0^2,^7]trideca-1(9),2(7),3,5,10,12-hexaen-13-ol] and `[2H]C([2H])([2H])c1nnn(C)c1-c1cnc2c3c(OC)nc(N(C)CCNC)cc3n([C@H](c3ncccc3F)C3CCOCC3)c2c1` [Example 313, 8-[(S)-(3-Fluoropyridin-2-yl)(oxan-4-yl)methyl]-13-methoxy-N-methyl-5-[4-(^2H3)methyl-1-methyl-1H-1,2,3-triazol-5-yl]-N-[2-(methylamino)ethyl]-3,8,12-triazatricyclo[7.4.0.0^2,^7]trideca-1(9),2(7),3,5,10,12-hexaen-11-amine] cannot be ordered by IC50: < 10 nM for the first, < 1500 nM for the second.

`[2H]C([2H])([2H])c1nnn(C)c1-c1cnc2c3cnc(Cl)cc3n([C@H](c3ccccc3F)C3CCOCC3)c2c1` [Example 315] and `Cc1nnn(C)c1-c1cnc2c3cnc(Cl)cc3n([C@H](c3ccc(F)cc3)C3CCOCC3)c2c1` [Example 322] cannot be ordered by IC50: < 10 nM for the first, < 10 nM for the second.

`Cc1nnn(C)c1-c1cnc2c3cnc(Cl)cc3n([C@H](c3ccc(Cl)cn3)C3CCOCC3)c2c1` [Example 323] was tested, and the IC50 was < 10 nM.
